“Also recorded” adds a separate entry of the source. Counter-ions that a name gives are not always drawn. Like-named read-outs stand apart in the source and are kept apart here.
Experiments:
[1] = biological target: T1, natural suppressor cells (Mus musculus, UniProt P97292); experiment: Effects of histamine derivatives on cAMP accumulation in natural suppressor (NS) cells; assay type: cell-based, mouse (BALB/c); settings: for Maximal efficacy on cAMP concentrations (in words): compared with histamine; for Relative potency: histamine = 1.0; for Activity / potency on NS cells (in words): cAMP accumulation, H2 activity
T1 construct: cAMP accumulation
Description: NS cells were obtained and cultured as follows: four-to six-month old BALB/c mice were anesthetized with pentobarbital and all major lymphoid organs, including all major lymph nodes, the spleen, and the thymus, were irradiated as described by Slavin et al., Science (1976) 193:1252. The skull, lungs, and hind legs were shielded with lead. The mice were given 200 rad per day, 5 times per week, to a total dose of 3400 rad. Irradiation was delivered from a single 250 kV (15A) source (Philips Medical Systems, Inc., Shelton, CT). The mice were killed between 5 and 15 days after completion of the TLI. Spleens were removed aseptically and single cell suspensions were prepared by gently pressing the spleen fragments through a nylon fiber mesh (Tetko, Inc., Elmsford, NY). These spleen cells were fed daily with tissue culture medium containing RPMI 1640, 10% FCS, 2 mM glutamine, 10% CAS and 5×10^-5 M 2-mercaptoethanol and were later cloned by limiting dilutior, The clones were maintained in RPMI 1640 medium with 10% PCS and 10% CAS.
NS cells were centrifuged and resuspended at b 1×10^6 /ml in PBS and incubated at 37° C. for 10 min with 10 mM IBMX at a final concentration at 20 μM. Alternatively the cells were resuspended in 5 mM HEPES and 1 mM MgSO4 and after five minutes were disrupted in a Dounce homogenizer. Broken cells were centrifuged at 20,000 g […] for thirty minutes and supernatant was discarded. The pellet was resuspended in Tris (pH 7.5), 5 mM HEPES and 1 mM MgSO4 and incubated with IBMX.
Cold TCA (100%) was added to a final concentration of 8% and the tubes were stored in ice. Samples were extracted 3 times with 3 volumes of ether. The ether was evaporated at 40° C. in a water bath for approximately 45 min. Acetylation of both experimental samples and cAMP standards were performed by addition of 10 μl of a mixture of triethylamine and acetic anhydride (2:1). […] The radio-immunoassay was performed as reported previously by Khan et al., J. Clin. Invest. (1985) 75:1578.

[2] = biological target: T2, guinea pig myocardial adenylate cyclase (Cavia porcellus, UniProt P47747); experiment: Guinea pig myocardial adenylate cyclase assay; assay type: biochemical; settings: adenylate cyclase
T2 construct: histamine-stimulated adenylate cyclase with GPP(NH)P
Method: Male, partly albino, guinea pigs (600 g average weight) were killed by a blow to the head. The hearts were excised and immediately immersed in ice cold oxygenated Tyrode's solution. Both ventricles were dissected free and placed in 250 mM sucrose, 5 mM Tris, 1 mM EDTA, pH 7.45. The tissue was minced with a screen, and was then homogenized with 3 consecutive 5 sec bursts of a Polytron (Brinkman Instruments, Inc., Westbury, NY) at a setting of 11. The homogenate was then centrifuged at 1085×g for 20 min. The pellet was resuspended and recentrifuged twice. The final suspension was filtered through four layers of gauze. Adenylate cyclase was assayed by the method of Salomon et al., Anal. Biochem. (1974) 58:541 as modified by Bristow et al., Mol Pharmacol. (1982) 21:671. Enzyme protein (75-250 μg) was added to a reaction mixture that consisted of 0.1 mM Mg ATP, 0.5 mM MgCl2, 10 mM phosphocreatine, 14.5 μg of creatine kinase (1381 U/mg), 100 mM
The final reaction volume before addition of α-^32 P!ATP was 225 μl. Reaction tubes were stored in cryogenic racks (Kryorack, Isolab, Inc. Akron, OH) at 0° C.
The reaction mixture was pre-warmed in a shaking water bath at 30° C. for 5 min after which 25 μl ([…]) of α-^32 P!ATP (250-500 Ci/mM) was added to label the ATP pool. The assay time was 20 min, the time needed for measurable stimulation of adenylate cyclase. The ^32 P reaction was stopped by the addition of 750 μl of 1% sodium dodecysulfate. ^32 P-labelled cyclic AMP was then isolated by the dual Dowex-alumina column method of Salomon et al., supra. α-^32 P!ATP (New England Nuclear Corporation, Boston, MA) that gave reagent blanks of 50 cpm was purified on Dowex columns as described by Salomon et al., supra.

[3] = biological target: T1, natural suppressor cells; experiment: Blocking histamine effects in natural suppressor cells (H2 antagonism); assay type: cell-based, mouse (BALB/c); settings: for Antagonism by cimetidine (H2 antagonist) of cAMP accumulation: cimetidine 10^-5 M, compounds 6-8 at 10^-4 M, 9 at 10^-7 M
Method: This assay was carried out in the same fashion as already described for the derivatives except that ED-90 concentration of the test compound was chosen. Cimetidine was added at the same time in concentrations ranging from 10^-4 to 10^-8 M. Alternatively, 10^-6 M cimetidine was added to 10^-3 -10^-8 M concentration of agonists.

[4] = system: natural suppressor cells; experiment: Mixed leukocyte reaction (MLR) suppressor assay; assay type: cell-based, mouse (BALB/c, C57 BL/6)
Method: Responder (BALB/c) and stimulator (C57 BL/6) spleen cells (5×10^5each) were incubated with graded numbers of NS cells in 0.3 ml/well in 96-well flat bottomed microculture plates (Costar, Data Packaging, Cambridge, MA). The culture medium was supplemented with 100 U/ml penicillin, 100 ug/ml of streptomycin (both GIBCO, Grand Island, NY), and 10=pooled human serum (VSP human serum, Biocell Laboratories, Carson CA). Co-cultured cells and stimulator cells were given 3300 rad before incubation. Cultures were maintained at 37° C. in 5% CO2 for 5 or 6 days. Eighteen hr before termination, 1 μCi of ^3 H!-thymidine (specific activity […]) (New England Nuclear, Boston, MA) was added to each culture. Cells were harvested as described above. The data were expressed as the arithmetic mean of triplicate cultures. Suppression was calculated as follows: percent suppression=1-(CPM with co-cultured cells)/(CPM without co-cultured cells)×100. […] To block the effects of agonists, […] cimetidine was used as an H2 antagonist and 10^-6 M mepyramine was used as an H1 antagonist.
CO-cultured and stimulator cells were given 3300 rad in vitro just prior to incubation. […] See, Khan et al., J. Immunol. (1985) 134:4100. […] To determine the role of H1 and H2 receptors in the modification of NS cell function, the incubation with compound 10 was carried out in the presence of either cimetidine (10^-5 M) or mepyramine (10^-6 M) for four hours at 37° C. The cells were then washed extensively and later added to co-cultures with responder and stimulator cells. […] Similar experiments were carried out with each of the indicated agonists (Table 5).

T1 sequence (P97292 whole entry): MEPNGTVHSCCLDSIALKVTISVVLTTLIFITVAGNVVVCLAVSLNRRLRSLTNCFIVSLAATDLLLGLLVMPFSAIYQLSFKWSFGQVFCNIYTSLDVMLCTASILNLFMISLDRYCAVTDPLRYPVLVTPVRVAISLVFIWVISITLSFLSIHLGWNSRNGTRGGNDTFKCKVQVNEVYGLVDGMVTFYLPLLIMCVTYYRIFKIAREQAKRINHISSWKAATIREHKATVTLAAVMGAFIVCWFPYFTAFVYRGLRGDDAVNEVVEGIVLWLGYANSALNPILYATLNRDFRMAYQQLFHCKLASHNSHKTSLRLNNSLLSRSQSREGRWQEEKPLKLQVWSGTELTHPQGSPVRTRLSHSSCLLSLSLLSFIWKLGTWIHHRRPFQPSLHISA
T2 sequence (P47747 whole entry): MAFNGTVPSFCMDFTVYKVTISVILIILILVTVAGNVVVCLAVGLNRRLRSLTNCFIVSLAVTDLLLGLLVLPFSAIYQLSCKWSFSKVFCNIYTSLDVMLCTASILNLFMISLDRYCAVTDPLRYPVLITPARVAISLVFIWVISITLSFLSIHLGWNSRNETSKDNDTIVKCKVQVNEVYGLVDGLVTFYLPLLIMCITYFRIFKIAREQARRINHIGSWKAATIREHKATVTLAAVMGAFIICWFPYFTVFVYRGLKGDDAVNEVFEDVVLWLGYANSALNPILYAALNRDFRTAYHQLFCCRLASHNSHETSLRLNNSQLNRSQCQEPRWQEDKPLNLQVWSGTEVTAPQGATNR

SMILES	Relative potency ([1]; NS cells)	Activity / potency on NS cells (in words) [1]	Activity on guinea pig myocardium (in words) [2]	Antagonism by cimetidine (H2 antagonist) of cAMP accumulation [3]	other results
CC(CCCCC(=O)Nc1ccc(C(F)(F)F)cc1)NCCc1c[nH]cn1 (stereo not drawn) [Compound 9]	4.3 × 10^4	very potent in NS cell cAMP assays	strikingly impotent in guinea pig myocardium	could not be completely inhibited by the H2 antagonist	Potency or activity relative to histamine ([1]; NS cells): 40,000 fold; Potency relative to histamine ([1]; NS cells): 4 orders of magnitude; Maximal efficacy on cAMP concentrations (in words) ([1]; NS cells): lost a significant amount of maximal efficacy; Activity / potency on NS cells (in words) ([1]; listed as compound 9): most potent of this series on H2 receptors; also recorded: retained H2 activity; Activity on guinea pig myocardium (in words) ([2]; listed as compound 9): did not stimulate adenylate cyclase in guinea pig myocardium
Cc1ccc(NC(=O)CCCCCC(C)NCCc2c[nH]cn2)cc1 (stereo not drawn) [Compound 8]	0.2 × 10^1	widely divergent activity	very weak effects		Activity on guinea pig myocardium (in words) ([2]; listed as compound 8): same rank order of potency found in the NS cells
Cc1ccc(NC(=O)CCCC(=O)NCCc2c[nH]cn2)cc1 [Compound 4, 5-2'-(4"-Imidazo)ethylamido!glutaryl p-Toluidine]	0.4 × 10^1	very active on NS cells	inactive on the guinea pig myocardium; also recorded: little or no effect on the myocardium	not inhibited by the H2 antagonist	Potency relative to histamine (in words) ([1]; NS cells): four times more potent than histamine; also recorded: equipotent to histamine on the lymphocyte accumulation of cyclic AMP
CNC(=O)CNC(=O)[C@H](Cc1ccc(NC(=O)CCCCC(C)NCCc2c[nH]cn2)cc1)NC(=O)OC(C)(C)C (stereo partly drawn) [Compound 12]	Inactive	impotent as H2 receptor agonists on NS cells	stimulated guinea pig myocardium		Activity / potency on NS cells (in words) ([1]; listed as compound 12): Neither an aliphatic amide derivative of histamine (compound 3) nor the dipeptide conjugate of histamine (compound 12) altered intracellular cAMP; also recorded: inactive on NS cells; Blockade of histamine mediated accumulation of cAMP ([3]; NS cells): failed to block histamine mediated accumulation of cAMP
Cc1ccc(NC(=O)CCCCNCCc2c[nH]cn2)cc1 [Compound 5, 5-2'-(4"-Imidazo)ethylamino!pentanoic Acid p-Toluide, Dihydrochloride]	0.2 × 10^1				Activity on guinea pig myocardium (in words) ([2]; Dihydrochloride): significantly different in their activity
Cc1ccc(NC(=O)CCCC(C)NCCc2c[nH]cn2)cc1 (stereo not drawn) [Compound 6]	3.8 × 10^3	very potent in NS cell cAMP assays	strikingly impotent in guinea pig myocardium; also recorded: less potent than histamine on the myocardium; also recorded: very weak effects; also recorded: significantly different in their activity	could not be completely inhibited by the H2 antagonist	Potency or activity relative to histamine ([1]; NS cells): 3000 fold; Potency relative to histamine (in words) ([1]; NS cells): three orders of magnitude more potent than histamine; Activity / potency on NS cells (in words) ([1]; listed as compound 6): widely divergent activity; also recorded: retained H2 activity; Activity on guinea pig myocardium (in words) ([2]; listed as compound 6): same rank order of potency found in the NS cells
CN(C)CCCSC(=N)N [Dimaprit, reference compound]		had H2 effects on the NS cells			EC50 ([1]; NS cells): 60 µM; Maximal efficacy on cAMP concentrations (in words) ([1]; NS cells): did not produce the same maximal effects as histamine on cAMP concentrations; Shift of dose response curve by cimetidine ([3]; 10^-3 M to 10^-8 M agonist, 10^-6 M cimetidine): parallel shifts to the right
CCCCCCNCCc1c[nH]cn1 [Compound 1, 1-2'-(4"-Imidazo)ethylamino!hexane, Dihydrochloride]	0.5 × 10^1			not inhibited by the H2 antagonist	Potency relative to histamine (in words) ([1]; NS cells, Dihydrochloride): about equipotent to histamine; also recorded: equipotent to histamine on the lymphocyte accumulation of cyclic AMP; Activity on guinea pig myocardium (in words) ([2]; Dihydrochloride): completely inactive; also recorded: little or no effect on the myocardium
CC(CCCC(=O)Nc1ccc(C(F)(F)F)cc1)NCCc1c[nH]cn1 (stereo not drawn) [Compound 10]	Inactive	lost all H2 activity	no effect on the guinea pig myocardium		H1 activity in MLR (in words) [4]: only H1 agonistic action; H1 activity in MLR (in words) ([4]; listed as compound 10): appeared to be a specific H1 receptor agonist
Cc1ccc(NC(=O)CCCCC(C)NCCc2c[nH]cn2)cc1 (stereo not drawn) [Compound 7, 6-2'-(4"-Imidazolyl)ethylamino!heptanoic Acid p-Toluide]	0.3 × 10^1	widely divergent activity	same rank order of potency found in the NS cells		Potency relative to histamine (in words) ([1]; NS cells): three times as potent as histamine
COc1ccc(CN(CCN(C)C)c2ccccn2)cc1 [Mepyramine, reference compound]					Effect of antagonist on derivative-enhanced suppression in MLR ([4]; with compound 10, cimetidine 10^-5 M or mepyramine 10^-6 M, four hours at 37° C): reversed the increase in suppressive activity of the derivative-stimulated NS cells
